IC50 and EC50 data for 27 compounds are collected here from patent publication US10738041B2, “Ferroportin inhibitors” (Vifor (International) AG, priority 2015, dated 2020).

The IC50 is the point on the concentration scale where inhibition reaches its midpoint. By EC50 is commonly meant the concentration needed to bring the measured effect to its halfway point.

One test deals with T1, ferroportin (Fpn) (Mus musculus, UniProt Q9JHI9).
T1 construct: host or cells: J774 mouse macrophage cell line, Fe(III)-NTA induced
T1 sequence (Q9JHI9 1-570): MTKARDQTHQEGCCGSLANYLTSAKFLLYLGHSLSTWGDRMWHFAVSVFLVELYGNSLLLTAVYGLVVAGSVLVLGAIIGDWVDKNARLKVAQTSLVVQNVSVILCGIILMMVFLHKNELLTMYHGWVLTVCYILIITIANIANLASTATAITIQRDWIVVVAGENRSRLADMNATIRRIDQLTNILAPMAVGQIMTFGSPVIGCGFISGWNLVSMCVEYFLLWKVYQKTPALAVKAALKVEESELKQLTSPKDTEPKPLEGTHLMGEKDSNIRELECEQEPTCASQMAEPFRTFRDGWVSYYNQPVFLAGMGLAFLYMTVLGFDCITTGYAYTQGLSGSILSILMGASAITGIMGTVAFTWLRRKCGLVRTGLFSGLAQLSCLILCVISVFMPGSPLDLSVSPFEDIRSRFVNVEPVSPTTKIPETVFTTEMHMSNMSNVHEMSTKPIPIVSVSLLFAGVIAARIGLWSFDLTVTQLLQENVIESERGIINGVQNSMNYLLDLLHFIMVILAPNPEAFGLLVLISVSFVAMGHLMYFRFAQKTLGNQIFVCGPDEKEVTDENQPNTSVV
As to the kind of experiment: Hepcidin Internalization Assay (J774). It counts as cell-based. The note with it: average of multiple measurements; inhibition of TMR-hepcidin (25 nM) internalization into J774 cells; read-out: J774 IC50. In a few lines:
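Inhibition of fluorescent TMR-hepcidin uptake via ferroportin was imaged in fixed J774 cells after a 2 h, 37 °C co-incubation with compound dilutions; cells were pre-cultured overnight with 200 μM Fe(III)NTA. Internalized TMR signal per cell (Sum(Mean)) was fitted as log(inhibitor) vs. response for IC50, in triplicate.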

The target of a further test is T2, human Fpn-GFP fusion (Homo sapiens, UniProt Q9NP59).
T2 construct: expressed in transfected cells; host or cells: HEK-293 cell line #354 (derivative of HEK-293 Tet-ON Advanced, Clontech)
T2 sequence (Q9NP59 1-571): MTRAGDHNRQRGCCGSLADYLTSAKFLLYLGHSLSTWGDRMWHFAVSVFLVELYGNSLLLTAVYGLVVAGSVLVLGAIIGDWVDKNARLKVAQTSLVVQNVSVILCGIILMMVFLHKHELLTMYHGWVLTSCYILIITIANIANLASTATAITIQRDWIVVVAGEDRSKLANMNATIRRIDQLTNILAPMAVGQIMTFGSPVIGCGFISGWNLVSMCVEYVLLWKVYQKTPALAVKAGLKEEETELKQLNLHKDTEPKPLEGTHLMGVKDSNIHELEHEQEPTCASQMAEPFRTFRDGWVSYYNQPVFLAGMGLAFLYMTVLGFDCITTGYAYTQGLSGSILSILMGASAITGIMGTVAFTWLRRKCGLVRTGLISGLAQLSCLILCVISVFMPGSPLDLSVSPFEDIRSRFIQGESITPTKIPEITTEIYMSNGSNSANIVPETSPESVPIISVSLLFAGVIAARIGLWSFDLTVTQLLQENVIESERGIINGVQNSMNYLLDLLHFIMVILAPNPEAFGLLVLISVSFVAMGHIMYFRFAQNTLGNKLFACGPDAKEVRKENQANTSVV
As to the kind of experiment: Inhibition of ferroportin mediated iron export activity in an iron response assay (BLAzer). The format is cell-based. The note with it: average of multiple measurements; HEK-293 cell line #354; read-out: BLAzer EC50. An excerpt:
Intracellular iron levels are indirectly measured in this assay by monitoring the activity of a beta-lactamase (BLA) reporter gene fused to the human ferritin promoter and the associated iron regulatory element (IRE) contained within the 5′ untranslated region of the ferritin mRNA. Expression of ferroportin (Fpn) in such a cell line leads to iron efflux and lower iron levels as reflected by lower activity of the reporter gene. On the other hand, inhibition of Fpn-mediated iron efflux results in elevated cellular iron levels which is detected as increased reporter gene activity. Small molecular weight Fpn inhibitor compounds were tested for dose-dependent effects in this in vitro iron response assay as described below.
The HEK-293 cell line #354 was generated by stable integration of (i) a human Fpn-GFP fusion construct inserted in a derivative of the doxycycline-inducible pTRE-Tight-BI plasmid (Clontech, Cat. 631068) and (ii) a human ferritin promoter-BLA reporter gene into a derivative of the HEK-293 Tet-ON Advanced cell line (Clontech). […] After overnight incubation, 10 μl/well of dilution series of the test compounds were added in quadruplicates and plates were further incubated overnight at 37° C. with 5% CQ. Cells were washed 3 times with HBSS leaving 25 μl per well. BLA activity was detected by adding 5 μl/well of the GeneBlazer reagent CCF4-AM (Invitrogen, Cat. K1085) to the cells. After incubation of the plates in the dark at 18° C. for 60 min., blue and green fluorescence signals were measured in a Safre2 fluorescence plate reader (Tecan) with excitation at 410 nm and emissions at 458 nm (blue) and 522 nm (green). The ratio of blue/green fluorescence as a measure for BLA activity was calculated and EC50 values were determined with the calculated blue/green fluorescence ratios as described for the hepcidin internalization assay.

A further test addresses T3, human Fpn (Homo sapiens, UniProt Q9NP59).
T3 construct: FLAG (C); made in house; host or cells: Pichia pastoris
T3 sequence (Q9NP59 1-571): T2 sequence (Q9NP59 1-571)
As to the kind of experiment: Biophysical Ferroportin-Hepcidin Binding Assay (fluorescence polarization). The note with it: average of multiple measurements; 1 μM human Fpn, 20 nM TMR-hepcidin; read-out: FP IC50. In a few lines: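 FP readout: a dose-dependent drop in TMR-hepcidin polarization (mP, from parallel and perpendicular emission) marked blocked binding to FLAG-tagged human Fpn purified from Pichia pastoris. Final levels were 1 μM Fpn and 20 nM TMR-hepcidin, with compound dilutions in duplicate, incubated 90 min at room temperature.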
Background: In fluorescence polarisation assays a small probe gives low polarisation when free and higher when bound to something large.

As for `O=C(NCc1ncccc1F)c1cncc(CCNCCc2nc3cc(F)ccc3[nH]2)c1` [compound 245], the IC50 at ferroportin (Fpn) was 188 nM; on human Fpn, 295 nM. Moreover, at human Fpn-GFP fusion, the EC50 came to 6140 nM.

`O=C(NCc1ccncn1)c1csc(CCNCc2nc3ccccc3[nH]2)n1` [Example 44]: the concentration for half-maximal inhibition (IC50) was determined as 1330 nM on ferroportin (Fpn) and 5340 nM at human Fpn. For the same compound, on human Fpn-GFP fusion, the concentration for a half-maximal effect (EC50) was found to be 18300 nM.

`O=C(NCc1ncccc1F)N1CCCC(CCNCCc2nc3ccccc3[nH]2)C1` (stereo not drawn) [compound 200]: the half-maximal inhibitory concentration (IC50) on ferroportin (Fpn) was found to be 3140 nM; on human Fpn it was 5650 nM. Further, the EC50 at human Fpn-GFP fusion came out at 45100 nM.

Take `Cc1cnc(CNC(=O)c2csc(CCNCc3nc4ccccc4[nH]3)n2)c(C)c1` [Example 57]: the concentration for half-maximal inhibition (IC50) is 100 nM at ferroportin (Fpn) and 430 nM on human Fpn. On human Fpn-GFP fusion, the concentration giving a half-maximal response (EC50) was 2110 nM.

In the case of `Cn1ccnc1CNC(=O)c1csc(CCNCc2nc3ccccc3[nH]2)n1` [Example 64], the concentration for half-maximal inhibition (IC50) on ferroportin (Fpn) stood at 130 nM; on human Fpn, 1240 nM. For the same compound, the EC50 on human Fpn-GFP fusion amounted to 4530 nM.

As for `O=C(NCc1cccnn1)c1csc(CCNCc2nc3ccccc3[nH]2)n1` [Example 87], the figures for the IC50 at ferroportin (Fpn) and at human Fpn were 190 nM and 2250 nM, respectively. Moreover, the EC50 at human Fpn-GFP fusion is 16600 nM.

Consider `O=C(NCc1ccncc1F)c1csc(CCNCc2nc3ccccc3[nH]2)n1` [Example 89], for which the results for the IC50 on ferroportin (Fpn) and at human Fpn were 89 nM and 922 nM, respectively. The concentration for a half-maximal effect (EC50) at human Fpn-GFP fusion is 5050 nM.

For the compound `O=C(NCc1ccccc1S(=O)(=O)N1CCOCC1)c1csc(CCNCc2nc3ccccc3[nH]2)n1` [Example 75], the IC50 on ferroportin (Fpn) was determined as 530 nM; on human Fpn it was 1830 nM. At human Fpn-GFP fusion, the EC50 was determined as 6000 nM.

With `N#Cc1ccc(CNC(=O)c2csc(CCNCc3nc4ccccc4[nH]3)n2)cn1` [Example 56], the IC50 on ferroportin (Fpn) came out at 410 nM; at human Fpn it was 566 nM. At human Fpn-GFP fusion, the EC50 came out at 10400 nM.

With `Cn1cncc1CNC(=O)c1csc(CCNCc2nc3ccccc3[nH]2)n1` [Example 84], the half-inhibitory concentration (IC50) on ferroportin (Fpn) is 400 nM; at human Fpn, 2410 nM. Further, the EC50 at human Fpn-GFP fusion worked out at 13200 nM.

For the compound `Cc1cccc(CNC(=O)c2csc(CCNCc3nc4ccccc4[nH]3)n2)n1` [Example 42], the IC50 was 600 nM on ferroportin (Fpn) and 2170 nM at human Fpn. For the same compound, the EC50 on human Fpn-GFP fusion turned out to be 36300 nM.

Consider `O=C(NCc1ncc(F)cc1Cl)c1csc(CCNCc2nc3ccccc3[nH]2)n1` [Example 102], for which the IC50 is 58 nM at ferroportin (Fpn) and 258 nM at human Fpn. At human Fpn-GFP fusion, the concentration for a half-maximal effect (EC50) amounted to 1850 nM.

`O=C(NCCCCNCc1nc2ccccc2[nH]1)NCc1ncccc1F` [compound 197]: the figures for the half-inhibitory concentration (IC50) at ferroportin (Fpn) and at human Fpn were 610 nM and 550 nM, respectively. In addition, the 50% effective concentration (EC50) on human Fpn-GFP fusion came to 18100 nM.

In the case of `O=C(CNC(=O)C1CN(CCc2nc3ccccc3[nH]2)C1)NCc1ncccc1F` [compound 201], the values for the concentration for half-maximal inhibition (IC50) at ferroportin (Fpn) and on human Fpn were 1930 nM and 790 nM, respectively. Besides, the concentration for a half-maximal effect (EC50) at human Fpn-GFP fusion was found to be 39400 nM.

Consider `Cc1cc(CNC(=O)c2csc(CCNCc3nc4ccccc4[nH]3)n2)ccn1` [Example 99], for which the 50% inhibitory concentration (IC50) on ferroportin (Fpn) turned out to be 2990 nM; at human Fpn, 4330 nM. In addition, the concentration for a half-maximal effect (EC50) on human Fpn-GFP fusion worked out at 22800 nM.

As for `Cn1nccc1CNC(=O)c1csc(CCNCc2nc3ccccc3[nH]2)n1` [Example 88], the IC50 was determined as 780 nM at ferroportin (Fpn) and 6760 nM on human Fpn. Besides, at human Fpn-GFP fusion, the EC50 was 13100 nM.

For `Cc1ccc(CNC(=O)c2csc(CCNCc3nc4ccccc4[nH]3)n2)nc1` [Example 97], the IC50 was 270 nM at ferroportin (Fpn) and 2130 nM at human Fpn. Further, the EC50 on human Fpn-GFP fusion came to 1810 nM.

On to `O=C(NCc1cnccn1)c1csc(CCNCc2nc3ccccc3[nH]2)n1` [Example 46], for which the values for the IC50 at ferroportin (Fpn) and on human Fpn were 590 nM and 4340 nM, respectively. Besides, the EC50 on human Fpn-GFP fusion was found to be 38700 nM.

Consider `O=C(NCc1ccccc1F)c1csc(CCNCc2nc3ccccc3[nH]2)n1` [Example 65], for which the IC50 came out at 850 nM at ferroportin (Fpn) and 950 nM on human Fpn. Besides, the EC50 on human Fpn-GFP fusion is 32300 nM.

Consider `O=C(NC1CCCc2cccnc21)c1csc(CCNCc2nc3ccccc3[nH]2)n1` (stereo not drawn) [Example 38], for which the concentration for half-maximal inhibition (IC50) at ferroportin (Fpn) amounted to 30 nM; at human Fpn, 233 nM. For the same compound, the EC50 at human Fpn-GFP fusion was 2980 nM.

Take `COc1cccnc1CNC(=O)c1csc(CCNCc2nc3ccccc3[nH]2)n1` [Example 59]: the half-inhibitory concentration (IC50) on ferroportin (Fpn) was 50 nM; at human Fpn it was 270 nM. Besides, at human Fpn-GFP fusion, the EC50 was determined as 1380 nM.

Turning to `O=C(NCc1ncccc1F)c1cncc(CCNCCc2nc3c(F)cccc3[nH]2)c1` [compound 246], the figures for the IC50 at ferroportin (Fpn) and at human Fpn were 276 nM and 263 nM, respectively. For the same compound, the EC50 on human Fpn-GFP fusion was found to be 12900 nM.

Regarding `O=C(NCc1ncccc1C(F)(F)F)c1csc(CCNCc2nc3ccccc3[nH]2)n1` [Example 37], the IC50 at ferroportin (Fpn) came out at 810 nM; at human Fpn it was 1900 nM. For the same compound, at human Fpn-GFP fusion, the EC50 is 7920 nM.

For `Cc1ccc(CNC(=O)c2csc(CCNCc3nc4ccccc4[nH]3)n2)nn1` [Example 93], the IC50 at ferroportin (Fpn) turned out to be 530 nM; on human Fpn it was 1030 nM. In addition, the EC50 at human Fpn-GFP fusion came out at 20600 nM.

As for `O=C(NCc1ccccc1)c1csc(CCNCc2nc3cc(Cl)ccc3[nH]2)n1` [Example 52], the values for the IC50 at ferroportin (Fpn) and on human Fpn were 340 nM and 1360 nM, respectively. Also, the EC50 at human Fpn-GFP fusion was 2080 nM.

For the compound `O=C(NCc1ncc(C(F)(F)F)cc1Cl)c1csc(CCNCc2nc3ccccc3[nH]2)n1` [Example 101], the 50% inhibitory concentration (IC50) at ferroportin (Fpn) is 280 nM; at human Fpn, 315 nM. Moreover, at human Fpn-GFP fusion, the concentration giving a half-maximal response (EC50) came out at 2920 nM.

Take `O=C(NCc1ncco1)c1csc(CCNCc2nc3ccccc3[nH]2)n1` [Example 85]: the values for the IC50 at ferroportin (Fpn) and on human Fpn were 29 nM and 1870 nM, respectively. At human Fpn-GFP fusion, the EC50 came out at 18700 nM.
